Assay: Release (dissolution) profile of capsules, USP Apparatus 2 (paddle)
Format: physicochemical
Settings: for Release rate (percentage of Compound 1 released over time): 0.04 mg capsule, Poloxamer 188:food grade GMS 50:50, T = 0 (pre-curing)
Source text: USP Apparatus 2 (Paddle Apparatus) is described, for example, in the United States Pharmacopeial Convention, Feb. 1, 2012, Chapter <711> (“Dissolution”), incorporated by reference herein in its entirety. See http://www.usp.org/sites/default/files/usp_pdf/EN/USPNF/revisions/m99470-gc_711.pdf. The assembly from Apparatus 1 is used, except that a paddle formed from a blade and a shaft is used as the stirring element. The shaft is positioned so that its axis is not more than 2 mm from the vertical axis of the vessel at any point and rotates smoothly without significant wobble that could affect the results. The vertical center line of the blade passes through the axis of the shaft so that the bottom of the blade is flush with the bottom of the shaft. A distance of 25±2 mm between the bottom of the blade and the inside bottom of the vessel is maintained during the test. The metallic or suitably inert, rigid blade and shaft comprise a single entity. A suitable two-part detachable design may be used provided the assembly remains firmly engaged during the test. The paddle blade and shaft may be coated with a suitable coating so as to make them inert. The dosage unit is allowed to sink to the bottom of the vessel before rotation of the blade is started. A small, loose piece of nonreactive material, such as not more than a few turns of wire helix, may be attached to dosage units that would otherwise float. Other validated sinker devices may be used.
Unless otherwise specified, the release profiles for capsules were measured using USP Apparatus 2 (paddle).
All release profiles disclosed in Tables 3c-3p were measured with USP Apparatus 2 (paddle) at 50 rpm in 500 mL of aqueous sodium phosphate at a concentration of 0.05 M (pH=6.8). The values in a given table relate to capsules obtained from the same batch. Values shown represent mean values over a number of dissolution tests (“n” in each table) in each case.

Release rate (percentage of Compound 1 released over time) (480 min): 72.7% | Release rate (percentage of Compound 1 released over time) (600 min): 79.8% | Release rate (percentage of Compound 1 released over time) (720 min): 83.1% | Release rate (percentage of Compound 1 released over time) (735 min): 84.6% | change of release rate after storage (0.04 mg of Compound 1 in Gelucire 50/13, storage at 40° C. and 75% RH for two weeks (FIG. 5)): rapid increase | release rate relative to immediate-release composition (0.5 mg Compound 1, Poloxamer 188:food grade GMS 70:30, 50:50 and 30:70 (FIGS. 8-10)): slower rate | release rate after storage (0.5 mg Compound 1, Poloxamer 188:food grade GMS 70:30, 50:50 and 30:70, storage at 40° C. and 75% RH for about one month (FIGS. 8-10)): substantially the same | mean value (n = 6) of % of Compound 1 released (Table 3c: size 4 capsule, 0.03 mg Compound 1, Poloxamer 188:food grade GMS 70:30, 20 min): 14.8% | mean value (n = 6) of % of Compound 1 released (Table 3c: size 4 capsule, 0.03 mg Compound 1, Poloxamer 188:food grade GMS 70:30, 30 min): 36.1% | mean value (n = 6) of % of Compound 1 released (Table 3c: size 4 capsule, 0.03 mg Compound 1, Poloxamer 188:food grade GMS 70:30, 45 min): 65.4% | mean value (n = 6) of % of Compound 1 released (Table 3c: size 4 capsule, 0.03 mg Compound 1, Poloxamer 188:food grade GMS 70:30, 60 min): 83.8% | mean value (n = 6) of % of Compound 1 released (Table 3c: size 4 capsule, 0.03 mg Compound 1, Poloxamer 188:food grade GMS 70:30, 90 min): 95.5% | mean value (n = 6) of % of Compound 1 released (Table 3c: size 4 capsule, 0.03 mg Compound 1, Poloxamer 188:food grade GMS 70:30, 120 min): 98.4% | mean value (n = 4) of % of Compound 1 released (Table 3e: size 4 capsule, 0.5 mg Compound 1, Poloxamer 188:food grade GMS 70:30, 30 min): 17.7% | mean value (n = 4) of % of Compound 1 released (Table 3e: size 4 capsule, 0.5 mg Compound 1, Poloxamer 188:food grade GMS 70:30, 60 min): 56.9% | mean value (n = 4) of % of Compound 1 released (Table 3e: size 4 capsule, 0.5 mg Compound 1, Poloxamer 188:food grade GMS 70:30, 120 min): 95.1% | mean value (n = 4) of % of Compound 1 released (Table 3f: size 4 capsule, 0.5 mg Compound 1, Poloxamer 188:food grade GMS 70:30, 30 min): 19.3% | mean value (n = 4) of % of Compound 1 released (Table 3f: size 4 capsule, 0.5 mg Compound 1, Poloxamer 188:food grade GMS 70:30, 60 min): 61.9% | mean value (n = 4) of % of Compound 1 released (Table 3f: size 4 capsule, 0.5 mg Compound 1, Poloxamer 188:food grade GMS 70:30, 120 min): 98.1% | mean value (n = 4) of % of Compound 1 released (Table 3g-1: Storage Time = 0, size 4 capsule, 0.5 mg Compound 1, Poloxamer 188:food grade GMS 70:30, 30 min): 33.0% | mean value (n = 4) of % of Compound 1 released (Table 3g-1: Storage Time = 0, size 4 capsule, 0.5 mg Compound 1, Poloxamer 188:food grade GMS 70:30, 45 min): 64.2% | mean value (n = 4) of % of Compound 1 released (Table 3g-1: Storage Time = 0, size 4 capsule, 0.5 mg Compound 1, Poloxamer 188:food grade GMS 70:30, 60 min): 86.0% | mean value (n = 4) of % of Compound 1 released (Table 3g-2 (Storage Time = 2 weeks), first line, size 4 capsule, 0.5 mg Compound 1, Poloxamer 188:food grade GMS 70:30, 30 min): 33.0% | mean value (n = 4) of % of Compound 1 released (Table 3g-2 (Storage Time = 2 weeks), first line, size 4 capsule, 0.5 mg Compound 1, Poloxamer 188:food grade GMS 70:30, 45 min): 64.2% | mean value (n = 4) of % of Compound 1 released (Table 3g-2 (Storage Time = 2 weeks), first line, size 4 capsule, 0.5 mg Compound 1, Poloxamer 188:food grade GMS 70:30, 60 min): 86.0% | mean value (n = 4) of % of Compound 1 released (Table 3g-2 (Storage Time = 2 weeks), second line, size 4 capsule, 0.5 mg Compound 1, Poloxamer 188:food grade GMS 70:30, 30 min): 34.8% | mean value (n = 4) of % of Compound 1 released (Table 3g-2 (Storage Time = 2 weeks), second line, size 4 capsule, 0.5 mg Compound 1, Poloxamer 188:food grade GMS 70:30, 45 min): 67.9% | mean value (n = 4) of % of Compound 1 released (Table 3g-2 (Storage Time = 2 weeks), second line, size 4 capsule, 0.5 mg Compound 1, Poloxamer 188:food grade GMS 70:30, 60 min): 89.4% | mean value (n = 4) of % of Compound 1 released (Table 3i: size 4 capsule, 0.5 mg Compound 1, Poloxamer 188:food grade GMS 50:50, 30 min): 7.5% | mean value (n = 4) of % of Compound 1 released (Table 3i: size 4 capsule, 0.5 mg Compound 1, Poloxamer 188:food grade GMS 50:50, 60 min): 21.1% | mean value (n = 4) of % of Compound 1 released (Table 3i: size 4 capsule, 0.5 mg Compound 1, Poloxamer 188:food grade GMS 50:50, 120 min): 41.1% | mean value (n = 4) of % of Compound 1 released (Table 3i: size 4 capsule, 0.5 mg Compound 1, Poloxamer 188:food grade GMS 50:50, 180 min): 58.9% | mean value (n = 4) of % of Compound 1 released (Table 3i: size 4 capsule, 0.5 mg Compound 1, Poloxamer 188:food grade GMS 50:50, 240 min): 75.3% | mean value (n = 4) of % of Compound 1 released (Table 3i: size 4 capsule, 0.5 mg Compound 1, Poloxamer 188:food grade GMS 50:50, 360 min): 94.3% | mean value (n = 4) of % of Compound 1 released (Table 3i: size 4 capsule, 0.5 mg Compound 1, Poloxamer 188:food grade GMS 50:50, 480 min): 100.0% | mean value (n = 4) of % of Compound 1 released (Table 3j: size 4 capsule, 0.5 mg Compound 1, Poloxamer 188:food grade GMS 50:50, 30 min): 7.8% | mean value (n = 4) of % of Compound 1 released (Table 3j: size 4 capsule, 0.5 mg Compound 1, Poloxamer 188:food grade GMS 50:50, 60 min): 19.5% | mean value (n = 4) of % of Compound 1 released (Table 3j: size 4 capsule, 0.5 mg Compound 1, Poloxamer 188:food grade GMS 50:50, 120 min): 38.6% | mean value (n = 4) of % of Compound 1 released (Table 3j: size 4 capsule, 0.5 mg Compound 1, Poloxamer 188:food grade GMS 50:50, 180 min): 56.8% | mean value (n = 4) of % of Compound 1 released (Table 3j: size 4 capsule, 0.5 mg Compound 1, Poloxamer 188:food grade GMS 50:50, 240 min): 72.9% | mean value (n = 4) of % of Compound 1 released (Table 3j: size 4 capsule, 0.5 mg Compound 1, Poloxamer 188:food grade GMS 50:50, 360 min): 90.7% | mean value (n = 4) of % of Compound 1 released (Table 3j: size 4 capsule, 0.5 mg Compound 1, Poloxamer 188:food grade GMS 50:50, 480 min): 97.4% | mean value (n = 6) of % of Compound 1 released (Table 3k: size 4 capsule, 0.03 mg Compound 1, Poloxamer 188:food grade GMS 50:50, 30 min): 8.5% | mean value (n = 6) of % of Compound 1 released (Table 3k: size 4 capsule, 0.03 mg Compound 1, Poloxamer 188:food grade GMS 50:50, 60 min): 18.0% | mean value (n = 6) of % of Compound 1 released (Table 3k: size 4 capsule, 0.03 mg Compound 1, Poloxamer 188:food grade GMS 50:50, 120 min): 39.3% | mean value (n = 6) of % of Compound 1 released (Table 3k: size 4 capsule, 0.03 mg Compound 1, Poloxamer 188:food grade GMS 50:50, 180 min): 58.6% | mean value (n = 6) of % of Compound 1 released (Table 3k: size 4 capsule, 0.03 mg Compound 1, Poloxamer 188:food grade GMS 50:50, 240 min): 75.2%
SMILES: O=C(O)COC[C@H]1CC[C@H](COC(=O)N(c2ccccc2)c2ccc(Cl)cc2)CC1 [Compound 1, 2-(((1r,4r)-4-(((4-chlorophenyl)(phenyl)carbamoyloxy)methyl)cyclohexyl)methoxy)acetic acid]
